In paper PMC11760385, “Differential GTP-dependent in-vitro polymerization of recombinant Physcomitrella FtsZ proteins” (Scientific Reports, 2025):

Experiments:
FtsZ2-1 = target: T1, FtsZ2-1 (Physcomitrium patens, UniProt O49922); test: malachite green phosphate release GTPase assay; format: biochemical; settings: 1 mM GTP, 7.5 µM protein, 37.5 mM glycine pH 10, 100 mM KCl, 5 mM MgCl2, 5% glycerol, 25 °C, 10 min
T1 construct: gene ftsZ 2-1; lacks N-terminal transit peptide (42 aa, TargetP-2.0); N-terminal His6-SUMO tag cleaved with Ulp1; codon-optimised, expressed in E. coli NiCo; start 43 follows from the removed 42 aa
T1 sequence (O49922 entry or part of it): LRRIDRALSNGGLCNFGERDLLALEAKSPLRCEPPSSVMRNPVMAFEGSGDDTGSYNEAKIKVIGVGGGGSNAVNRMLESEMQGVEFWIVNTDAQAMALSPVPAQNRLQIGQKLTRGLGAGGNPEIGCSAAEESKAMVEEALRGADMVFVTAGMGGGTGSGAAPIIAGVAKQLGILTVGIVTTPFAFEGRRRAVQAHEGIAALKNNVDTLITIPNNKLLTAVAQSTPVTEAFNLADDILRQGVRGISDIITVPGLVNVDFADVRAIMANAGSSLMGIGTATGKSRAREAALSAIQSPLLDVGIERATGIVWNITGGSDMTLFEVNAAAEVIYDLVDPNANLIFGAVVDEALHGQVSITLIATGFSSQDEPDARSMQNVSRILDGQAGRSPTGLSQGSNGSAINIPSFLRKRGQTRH

FtsZ1-2 = target: T2, FtsZ1-2 (Physcomitrium patens, UniProt A9SRP3); test: malachite green phosphate release GTPase assay; format: biochemical; settings: 1 mM GTP, 7.5 µM protein, 37.5 mM glycine pH 10, 100 mM KCl, 5 mM MgCl2, 5% glycerol, 25 °C, 10 min
T2 construct: gene LOC112295762; lacks N-terminal transit peptide (86 aa, TargetP-2.0); N-terminal His6-SUMO tag cleaved with Ulp1; codon-optimised, expressed in E. coli NiCo; start 87 follows from the removed 86 aa
T2 sequence (A9SRP3 entry or part of it): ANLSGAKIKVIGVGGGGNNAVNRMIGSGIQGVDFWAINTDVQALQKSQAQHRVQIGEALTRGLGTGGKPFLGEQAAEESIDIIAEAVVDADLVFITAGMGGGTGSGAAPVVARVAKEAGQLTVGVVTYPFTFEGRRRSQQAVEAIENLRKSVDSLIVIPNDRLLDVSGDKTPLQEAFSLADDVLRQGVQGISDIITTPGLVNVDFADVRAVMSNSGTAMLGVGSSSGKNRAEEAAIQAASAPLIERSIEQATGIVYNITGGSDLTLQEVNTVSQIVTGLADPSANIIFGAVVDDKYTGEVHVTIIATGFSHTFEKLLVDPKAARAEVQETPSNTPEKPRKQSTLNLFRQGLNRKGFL

In the case of `Nc1nc2c(ncn2[C@@H]2O[C@H](COP(=O)(O)OP(=O)(O)OP(=O)(O)O)[C@@H](O)[C@H]2O)c(=O)[nH]1` [GTP], the “malachite green phosphate release GTPase assay” value (FtsZ2-1) was “Both FtsZ proteins exhibited low but significant GTPase activities” and the “malachite green phosphate release GTPase assay” value (FtsZ1-2) was “Both FtsZ proteins exhibited low but significant GTPase activities”.
